{"source": "patent US20100209345A1", "about": "“Fluorinated Ligands for Targeting Peripheral Benzodiazepine Receptors” (Australian Nuclear Science & Technology Organisation, priority 2006, published 2010)", "key": {"[1]": {"target": "T1, peripheral benzodiazepine binding site (Rattus norvegicus, UniProt P16257)", "T1 construct": "diluted kidney membrane preparation (200 μg); from tissue; host or cells: kidney membrane preparation", "assay": "In vitro binding, [3H]-PK11195, kidney membrane preparation", "conditions": "PBR IC50 (nM), [3H]-PK11195 (2 nM), 4° C., 1 h", "description": "Non-specific binding was determined with PK11195 (10 μM).\n(§1) Non-specific binding was determined with Flumazenil (20 μM). In both cases, incubations were terminated by rapid filtration through Whatman GF/B glass fibre. Filters were immediately washed 3 times with 5 mL ice-cold 50 mM Tris/HCl at pH 7.4. Filters were counted in a β-scintillation counter (Packard) to measure the amount of bound radioactivity. The IC50 of the compounds for the peripheral benzodiazepine binding site and the central benzodiazepine receptor were calculated using Kell 6 software."}, "[2]": {"target": "central benzodiazepine receptors", "assay": "In vitro binding, [3H]-Flumazenil, brain cortex membrane preparation", "conditions": "for IC50: [3H]-Flumazenil (2 nM), 25° C., 45 min, read-out: CBR IC50", "description": "as §1"}}, "data": [{"compound": "O=C(Cc1c(-c2ccc(OCCF)cc2)nc2ccc(Cl)cn12)N1CCCC1", "note": "[PBR104, 2-(2-(4-(2-fluoroethoxy)phenyl)-6-chloroimidazo[1,2-a]pyridin-3-yl)-1-(pyrrolidin-1-yl)ethanone]", "values": [{"measurement": "IC50", "setting": "[1]", "value": 575, "unit": "nM"}, {"measurement": "IC50", "setting": "[2]", "value": 1640, "unit": "nM"}, {"measurement": "chromatographic logP", "setting": "LogP HPLC", "value": "2.45 ± 0.08"}]}, {"compound": "CN(C)C(=O)Cc1c(-c2ccc(OCCF)cc2)nc2ccc(Cl)cn12", "note": "[PBR105, 2-(2-(4-(2-fluoroethoxy)phenyl)-6-chloroimidazo[1,2-a]pyridin-3-yl)-N,N-dimethylacetamide]", "values": [{"measurement": "IC50", "setting": "[1]", "value": 675, "unit": "nM"}, {"measurement": "IC50", "setting": "[2]", "value": 1760, "unit": "nM"}, {"measurement": "chromatographic logP", "setting": "LogP HPLC", "value": "2.04 ± 0.06"}]}, {"compound": "CCN(C)C(=O)Cc1c(-c2ccc(OCCF)cc2)nc2ccc(Cl)cn12", "note": "[PBR107, 2-(2-(4-(2-fluoroethoxy)phenyl)-6-chloroimidazo[1,2-a]pyridin-3-yl)-N-ethyl-N-methylacetamide]", "values": [{"measurement": "IC50", "setting": "[1]", "value": 54.8, "unit": "nM"}, {"measurement": "IC50", "setting": "[2]", "value": 1390, "unit": "nM"}, {"measurement": "chromatographic logP", "setting": "LogP HPLC", "value": "2.34 ± 0.07"}]}, {"compound": "CCN(CC)C(=O)Cc1c(-c2ccc(OCCCCF)cc2)nc2ccc(Cl)cn12", "note": "[PBR 120, 2-(2-(4-(4-fluorobutoxy)phenyl)-6-chloroimidazo[1,2-a]pyridin-3-yl)-N,N-diethylacetamide]", "values": [{"measurement": "IC50", "setting": "[1]", "value": 35, "unit": "nM"}, {"measurement": "IC50", "setting": "[2]", "value": 942, "unit": "nM"}, {"measurement": "chromatographic logP", "setting": "LogP HPLC", "value": "3.53 ± 0.11"}]}, {"compound": "CN(C(=O)Cc1c(-c2ccc(OCCF)cc2)nc2c(Cl)cc(Cl)cn12)c1ccccc1", "note": "[PBR 143, 2-(2-(4-(2-fluoroethoxy)phenyl)-6,8-dichloroimidazo[1,2-a]pyridin-3-yl)-N-methyl-N-phenylacetamide]", "values": [{"measurement": "IC50", "setting": "[1]", "value": 6.4, "unit": "nM"}, {"measurement": "CBR, % @ 10^−5M", "setting": "[2]; @ 10^−5M, [3H]-Flumazenil", "value": 50, "unit": "% @ 10^−5M"}, {"measurement": "chromatographic logP", "setting": "LogP HPLC", "value": "3.85 ± 0.12"}]}, {"compound": "CC(C)NC(=O)Cc1c(-c2ccc(OCCF)cc2)nc2ccc(Cl)cn12", "note": "[PBR110, 2-(2-(4-(2-fluoroethoxy)phenyl)-6-chloroimidazo[1,2-a]pyridin-3-yl)-N-isopropylacetamide]", "values": [{"measurement": "IC50", "setting": "[1]", "value": 14.1, "unit": "nM"}, {"measurement": "IC50", "setting": "[2]", "value": 2740, "unit": "nM"}, {"measurement": "chromatographic logP", "setting": "LogP HPLC", "value": "2.74 ± 0.09"}]}, {"compound": "CNC(=O)Cc1c(-c2ccc(OCCF)cc2)nc2ccc(Cl)cn12", "note": "[PBR106, 2-(2-(4-(2-fluoroethoxy)phenyl)-6-chloroimidazo[1,2-a]pyridin-3-yl)-N-methylacetamide]", "values": [{"measurement": "IC50", "setting": "[1]", "value": 170, "unit": "nM"}, {"measurement": "IC50", "setting": "[2]", "value": 548, "unit": "nM"}, {"measurement": "chromatographic logP", "setting": "LogP HPLC", "value": "2.05 ± 0.07"}]}]}
